# Measured values published in PubChem BioAssay AID2305 (GlaxoSmithKline (GSK), 2010).
# pIC50: −log10 of the molar value.
# System: P. falciparum 3D7 growth, pLDH absorbance
# Assay: blood-stage malaria parasite growth potency – strain 3D7, dose response (AID 2305)
row,Compound,pIC50
1,COc1ccc(NC(=O)Nc2ccc(Nc3nc(C)cc(N4CCCC4)n3)cc2)cc1,6.85
2,O=C(Nc1ccnc(N2CCCN(Cc3cccc(O)c3)CC2)c1)c1ccc(F)cc1,5.83
3,Cc1cc(CN2CC[C@H](NC(=O)c3ccc(Cl)c(Cl)c3)C2)ccc1OC1CCN(C)C1 (stereo partly drawn),6.02
4,O=[N+]([O-])c1ccc(-c2nc3ccc(C4=N[C@H]5CCCC[C@H]5N4)cc3[nH]2)cc1,6.16
5,CCC(C(=O)Nc1cc(=O)[nH]c2nc(-c3ccco3)nn12)c1ccccc1 (stereo not drawn),6.08
6,COc1ccc2ncc(F)c(CCN3C[C@H](CNCc4ccc(F)cc4)[C@H](O)C3)c2n1,6.09
7,O=C(c1cc(-c2ccco2)[nH]n1)N1CCN(S(=O)(=O)c2ccc(Br)cc2)CC1,6.30
8,Cc1ccc(NC(=O)Nc2ccccc2F)cc1-c1ccc(C(=O)Nc2ccncc2)cc1,6.25
9,Cc1ccc2c(Cl)c(C(=O)N3CC(C)OC(C)C3)sc2c1 (stereo not drawn),6.74
10,COc1ccc2c(=O)c(C3CCC(c4ccc(Cl)cc4)CC3)c(C)[nH]c2c1 (stereo not drawn),6.19
11,CN(CCNCc1ccc(-c2cccc(-c3nc4ccccc4[nH]3)c2)cc1)S(C)(=O)=O,6.02
12,CC(C)(C)N1CCC(N(Cc2ccc(-c3ccc(C(F)(F)F)cc3)cc2)C(=O)Cn2c(CCc3cccc(F)c3F)nc(=O)c3cccnc32)CC1,6.12
13,Cn1cc(-c2ccccc2C(=O)O)c(=O)c2cc(Cl)ccc21,6.04
14,COc1ccc2nccc([C@@H](O)CN3CCC(NCc4cc5ccc(C#N)cc5[nH]4)CC3)c2c1,7.00
15,CN1CCC(C(=O)Nc2cccc(-c3ccc(-c4nc5ccc(C(F)(F)F)cc5[nH]4)cc3)c2)CC1,6.17
16,O=C(Nc1ccc(-c2csc3nccn23)cc1)c1ccc(Cl)cc1,6.24
17,O=C(Nc1ccc(-c2csc(-c3nc4ccccc4[nH]3)c2)cc1)Nc1ccc(Cl)c(Cl)c1,6.40
18,NC(Cc1cccc(I)c1)C(=O)NCC1CCCO1 (stereo not drawn),6.05
19,O=C(NCCSCc1c(F)cccc1Cl)c1cnc2c(c1)nc(-c1cnc(-c3ccccc3)[nH]1)n2CCc1cnc[nH]1,6.09
20,C[C@@H]1CN(c2cnn(Cc3cccc(NC(=O)Nc4cccc(C(F)(F)F)c4)c3)c(=O)c2Cl)C[C@H](C)N1,6.09
21,CC(Cc1ccc(CN2CCN(Cc3ccccc3)CC2)cc1)NCC(O)c1cccc(C(F)(F)F)c1 (stereo not drawn),6.05
22,COC(=O)/C=C/c1ccc(CC(C)NCC(O)c2cccc(Br)c2)cc1 (stereo not drawn),6.14
23,Cc1cc(Cl)c(S(=O)(=O)N2CCc3ccccc32)cc1OCC(=O)NC1CCCCC1,6.52
24,N#CCCN1CCN(Cc2cccc(-c3ccc(-c4nc5ccccc5[nH]4)s3)c2)CC1,6.12
25,CCSc1nnc(C2CCCN(CC(=O)Nc3cc(C(F)(F)F)ccc3Cl)C2)n1CC (stereo not drawn),6.64

row,Compound,pIC50
1,CCCc1ccc(C2CCN(CCCCNC(=O)c3ccc(NC(=O)c4ccc(Cl)cc4)cc3)CC2)cc1,6.20
2,Cc1cc(C2CCN(CCCCNC(=O)c3ccc(NC(=O)c4ccc(Cl)cc4)cc3)CC2)c(C)cc1OCc1ccccn1,6.10
3,CNC(=O)c1ccccc1Nc1nc(Nc2ccc(CCN3CCN(C)CC3)cc2)ncc1Cl,6.19
4,CCCCCCN1CCC(NCc2cccc3ccccc23)CC1,6.09
5,CN(C)CCC(=O)c1ccccc1,6.48
6,Cc1ccc2c(C3=CCN(CCCCC4(C)C(=O)Nc5ccccc54)CC3)c(C)[nH]c2c1 (stereo not drawn),6.43
7,CC(C)(C)c1ccc(C(=O)NC2CCC(CCN3CCc4ccc(S(C)(=O)=O)cc4CC3)CC2)cc1C(F)(F)F (stereo not drawn),5.91
8,c1ccc(Cn2nnnc2-c2cccc(Nc3ccnc4cc(-c5nccs5)ccc34)c2)cc1,6.08
9,C=CCn1c(SCc2c(C)noc2C)nc2scc(-c3cccs3)c2c1=O,5.96
10,COc1cc(N(Cc2ccccc2C)S(=O)(=O)Cc2ccccc2[N+](=O)[O-])c(OC)cc1Cl,6.00
11,COCC(=O)Nc1nc2ccccc2[nH]1,6.52
12,Cn1c(NCc2cc(F)cc3c2OCOC3)nc2cc(Nc3ccnc(Nc4cccc(CS(C)(=O)=O)c4)n3)ccc21,6.82
13,COc1cccc(CNC(=O)[C@H]2CNCCN2C(=O)CCCc2ccccc2)c1,6.10
14,CC[C@@]1(O)C(=O)OCc2c1cc1n(c2=O)Cc2c-1nc1cc3c(cc1c2CN1CCN(C)CC1)OCCO3,6.35
15,O=C(Nc1ccc(-c2ccccc2)cc1)Nc1ccc2c(c1)CCNCC2,6.46
16,CCn1ccc2c(N3CCCCS3(=O)=O)cc(C(=O)N[C@@H](Cc3ccccc3)[C@H](O)CNC(C)(C)CCCC(C)C)cc21,6.38
17,CCCCc1cc(NCC)nc(Nc2cccc(OC)c2)n1,6.04
18,FC(F)(F)Oc1ccc(-c2cnc3ccc(NCc4ccncc4)nn23)cc1,6.06
19,Nc1ncc(-c2ccc(Br)cc2)c(N)n1,6.04
20,COc1cc(NC(=O)c2ccc(-c3ccccc3)cc2)ccc1OCCCN1CCC(c2ccccc2)CC1,6.12
21,CC(C)c1ccc(NC(=O)N[C@H]2CCN(CCCCCNC(=O)/C=C/c3ccc(Cl)c(Cl)c3)C2)cc1,6.15
22,Cc1[nH]c(C)c(-c2ccc(Oc3ccc(S(C)=O)cc3)cc2)c(=O)c1Br (stereo not drawn),6.12
23,O=[N+]([O-])c1ccccc1C=NNc1c2c(nc3ccccc13)CCCC2,6.51
24,CCN(CC)CCOc1ccc(N(Cc2ccc(C(C)(C)C)cc2)C(=O)c2ccc(Cc3ccccc3)cc2)cc1OC,6.11
25,O=C(NCCCN1CCN(c2cccc(Cl)c2)CC1)c1ccc(-c2nc3cc(Cl)c(Cl)cc3[nH]2)c(F)c1,6.08

row,Compound,pIC50
1,CN(C)c1cccc(CCNCCc2c[nH]c3ccc(Cl)cc23)c1,6.36
2,Cc1ccnc(-n2c(C)cc(C=C3SC(=Nc4ccccc4)N(Cc4ccco4)C3=O)c2C)c1,6.62
3,Cc1ccc(Nc2nccc(NCC(O)c3cccc(F)c3)n2)cc1 (stereo not drawn),6.17
4,CSc1cccc(Nc2nc3ccc(S(=O)(=O)NCC(C)C)cc3n2C(C)C(C)C)c1 (stereo not drawn),6.09
5,COc1ccc(-c2csc(N(CCCN(C)C)C(=O)c3cc4c(C)nn(-c5ccccc5)c4s3)n2)cc1,6.21
6,Cc1c(Cl)cccc1S(=O)(=O)Nc1cccc(CCN2CCC(N3CCCCC3)CC2)c1,6.08
7,c1ccc(Oc2ccc(Nc3ccnc4cc(-c5ccc(CN6CCNCC6)o5)ccc34)cc2)nc1,6.62
8,COc1ccc(N2CCN(C(CNC(=O)C3CCCCC3)c3ccc4c(c3)OCO4)CC2)cc1 (stereo not drawn),6.24
9,Fc1ccc2cc(C=Cc3ccncc3)[nH]c2c1,6.21
10,CC[C@H]1CN2CC[C@H]1C[C@H]2[C@H](O)c1cc(N2CCCC(C(=O)N(CC)CC)C2)nc2ccc(OC)cc12 (stereo partly drawn),7.15
11,CCOc1cc2ncnc(Nc3cc(Cl)c(Cl)c(Cl)c3)c2cc1OCC,6.70
12,CN1CCC[C@H]1COc1ccc(CN2CC[C@H](NC(=O)c3ccc(Cl)c(Cl)c3)C2)c2ccccc12,6.02
13,CO/C(=C\C=C\c1cc2cc(Cl)c(Cl)cc2[nH]1)C(=O)NCCCN1CCN(c2cccc(OCC(=O)Nc3cccc(C(=O)c4ccccc4)c3)c2)CC1,6.16
14,CN(C)Cc1cccc(-c2cnc(N)c(-c3nc4ccc(S(C)(=O)=O)cc4[nH]3)c2)c1,6.05
15,CCN(CC)CCN(Cc1ccc(-c2ccc(C(F)(F)F)cc2)cc1)C(=O)Cn1c(CCc2cccc(F)c2F)nc(=O)c2ccc(C(F)(F)F)cc21,6.11
16,CC1CN(C(=O)c2sc3ccccc3c2Cl)CC(C)O1 (stereo not drawn),7.05
17,CN(C)CCN(C)Cc1ccc(-c2cccc(NC(=O)c3cccc(C#N)c3)c2)cc1,5.93
18,O=C(Nc1cccc(-c2cc(-c3c(Cl)cccc3Cl)no2)c1)c1cncc(-c2cccs2)c1,6.02
19,Cc1cccc2[nH]c(-c3ccc(-c4cccc(CNCc5ccc(S(C)(=O)=O)cc5)c4)s3)nc12,6.48
20,Cc1cc(CN2CC[C@H](NC(=O)c3ccc(Cl)c(Cl)c3)C2)ccc1OC1CCN(Cc2ccccc2)CC1,6.04
21,CN(C)Cc1ccc(-c2cccc(Nc3nccc(NCC(O)c4ccccc4)n3)c2)cc1 (stereo not drawn),6.43
22,CCN(CC)CCCC(C)Nc1cc(C)nc2cc(Cl)ccc12 (stereo not drawn),6.14
23,Nc1ncc(-c2cccc(CCN3CCOCC3)c2)cc1-c1nc2ccc(Br)cc2[nH]1,6.55
24,Clc1ccc(-c2ncc(-c3ccncc3)[nH]2)cc1Cl,5.97
25,FC(F)(F)c1ccc2nccc(NN=Cc3ccccc3Cl)c2c1,6.10

row,Compound,pIC50
1,COc1ccc(CCn2c(C3CCCCC3)nc3oc4ccccc4c(=O)c3c2=O)cc1,6.02
2,Cc1nn(-c2ccccc2)c2nc(-c3ccccc3)cc(C(=O)N3CCOCC3)c12,6.06
3,Cc1ccc2cc(NC(=O)CCCCCCCON3C(N)=NC(N)=NC34CCCCC4)ccc2n1,7.05
4,COc1ccc2nc(C)cc(Nc3ccc(Cl)cc3)c2c1,6.02
5,CCCCCCCN1CC[C@@H](CCCc2ccnc3ccc(OC)cc23)[C@@H](CCN)C1,6.12
6,Cc1ccc(NC(=O)c2ccc3ncccc3c2)cc1OC1CCN(Cc2ccc(F)cc2)C1 (stereo not drawn),5.87
7,O=C(/C=C/c1ccc(Cl)c(Cl)c1)NCCCCCCN1CCN(C(=O)Nc2ccc(Cl)c(C(F)(F)F)c2)CC1,6.28
8,Cc1cc(OCC2CCN(c3ccc(C(=O)NC4CC4)cn3)CC2)ccc1F,6.06
9,Cc1noc(C)c1-c1ccc2c(Nc3ccc(C#N)cc3)c(C(N)=O)cnc2c1,6.12
10,Cc1cc(N[C@@H](Cc2ccccc2)C(=O)NCCOc2ccccc2)nc(NCCc2cccs2)n1,6.00
11,CN(Cc1ccccc1)C1CCCN(c2cc(NC(=O)c3cccs3)ccn2)C1 (stereo not drawn),5.95
12,CCCc1cc(OC)c(CC2c3cc(O)c(Cl)cc3C(c3ccccc3)CN2C)cc1OC (stereo not drawn),6.37
13,COc1cc(NC(=O)N2CCc3ccc(OCCN(C(C)C)C(C)C)cc32)cc(C(F)(F)F)c1,6.72
14,O=C1CCCN1CCCNCc1cccc(-c2cccc(-c3nc4ccc(F)cc4[nH]3)c2)c1,6.22
15,Cc1cc(-c2c[nH]c3ncc(-c4cccc5ncccc45)cc23)ccc1C(=O)O,6.12
16,O=C(Nc1ccc(OC2CCN(Cc3ccccc3)CC2)c(Cl)c1)c1ccc(F)cc1,6.10
17,Cc1ccc(Nc2ccnc3ccc(C(F)(F)F)cc23)cc1O,6.02
18,O=C(C=Cc1ccc([N+](=O)[O-])cc1)N1CCC(CCN2CCC(c3c[nH]c4ccccc34)CC2)CC1,6.13
19,O=C(Nc1cccc(F)c1)c1ccc(C(=O)NC2CCN(CC3CCCCC3)C2)cc1 (stereo not drawn),6.03
20,Cc1nc(N)nc(N)c1C#CC1CCCC1,6.11
21,CCCCC(=O)Nc1ccc(Nc2nc(C)cc(N3CCCC3)n2)cc1,5.97
22,Cc1noc(C)c1-c1ccc2c(Nc3ccccc3C(C)(C)C)c(C(=O)NCc3ccc(OC(C)C)cc3)cnc2c1,6.04
23,Cc1noc(C)c1-c1cccc(CNCc2cccc(-c3ccc(-c4nc5ccccc5[nH]4)s3)c2)c1,6.70
